From PMC12669040, “Tumour-specific STING agonist synthesis via a two-component prodrug system” (Nature Chemistry, 2025)
Where “and” joins values, the source holds several entries; their conditions need not be identical. Identical values can stand only once.

Columns and labels:
[1] = Colorimetric alkylation rate constant assay with thiol N1; assay type: physicochemical; details: for remaining [A]: N1 from calibration curve (N1 in uM); for remaining [A] / remaining [B]: in µM
[2] = Colorimetric alkylation rate constant assay with TNB^2− as non-specific thiol; assay type: physicochemical; set-up: second-order: unit not given here; details: for remaining [B]: in µM
[3] = Time 2891 sec, [B]0 = 250, Replicates 1-3
[4] = Time 3071 sec, [B]0 = 250, Replicates 1-3
[5] = Time 3252 sec, [B]0 = 250, Replicates 1-3
[6] = Time 3433 sec, [B]0 = 250, Replicates 1-3
[7] = Time 3613 sec, [B]0 = 250, Replicates 1-3

## O=C(CCl)Nc1ccccc1C(=O)O [Compound C5]
[1]; Replicate 1, time 576 sec
  remaining [A]: 85.1676
[1]; Replicate 1, time 576 sec, [B]0 = 250
  remaining [B]: 231.048
[1]; Replicate 1, time 576 sec, second-order plot value
  second-order: 0.0008369
[1]; Replicate 1, time 606 sec
  remaining [A]: 84.6546
[1]; Replicate 1, time 606 sec, [B]0 = 250
  remaining [B]: 230.535
[1]; Replicate 1, time 606 sec, second-order plot value
  second-order: 0.0008631
[1]; Replicate 2, time 576 sec
  remaining [A]: 85.8231
[1]; Replicate 2, time 576 sec, [B]0=250
  remaining [B]: 232.681
[1]; Replicate 2, time 576 sec, second-order plot value
  second-order: 0.0007628
[1]; Replicate 2, time 606 sec
  remaining [A]: 85.3129
[1]; Replicate 2, time 606 sec, [B]0=250
  remaining [B]: 232.171
[1]; Replicate 2, time 606 sec, second-order plot value
  second-order: 0.0007885
[1]; Replicate 3, time 576 sec
  remaining [A]: 89.9918
[1]; Replicate 3, time 576 sec, [B]0=250
  remaining [B]: 235.444
[1]; Replicate 3, time 576 sec, second-order plot value
  second-order: 0.0006183
[1]; Replicate 3, time 606 sec
  remaining [A]: 89.4236
[1]; Replicate 3, time 606 sec, [B]0=250
  remaining [B]: 234.876
[1]; Replicate 3, time 606 sec, second-order plot value
  second-order: 0.0006452
[1]; time 0 sec, [B]0 = 250, replicates 1-3
  remaining [B]: 249.513 and 244.642 and 245.947
[1]; time 0 sec, replicates 1-3
  second-order: 0.0001617 and 1.87e-5 and 0.0002136
[1]; time 30 sec, [B]0 = 250, replicates 1-3
  remaining [B]: 248.485 and 243.217 and 245.21
[1]; time 30 sec, replicates 1-3
  second-order: 0.0001921 and 5.857e-5 and 0.0002732
[1]; time 60 sec, [B]0 = 250, replicates 1-3
  remaining [B]: 247.619 and 242.647 and 243.934
[1]; time 60 sec, replicates 1-3
  second-order: 0.0002455 and 9.259e-5 and 0.0002974
[1]; time 91 sec, [B]0 = 250, replicates 1-3
  remaining [B]: 246.645 and 241.963 and 243.197
[1]; time 91 sec, replicates 1-3
  second-order: 0.0002767 and 0.0001313 and 0.0003267
[1]; time 121 sec, [B]0 = 250, replicates 1-3
  remaining [B]: 245.942 and 241.222 and 242.404
[1]; time 121 sec, replicates 1-3
  second-order: 0.0003108 and 0.0001597 and 0.0003587
[1]; time 151 sec, [B]0 = 250, replicates 1-3
  remaining [B]: 245.265 and 240.31 and 241.667
[1]; time 151 sec, replicates 1-3
  second-order: 0.0003428 and 0.0001872 and 0.0003986
[1]; time 182 sec, [B]0 = 250, replicates 1-3
  remaining [B]: 244.291 and 239.712 and 241.043
[1]; time 182 sec, replicates 1-3
  second-order: 0.0003702 and 0.0002272 and 0.0004251
[1]; time 212 sec, [B]0 = 250, replicates 1-3
  remaining [B]: 243.723 and 239.142 and 240.505
[1]; time 212 sec, replicates 1-3
  second-order: 0.000394 and 0.0002509 and 0.0004506
[1]; time 242 sec, [B]0 = 250, replicates 1-3
  remaining [B]: 242.993 and 238.344 and 239.824
[1]; time 242 sec, replicates 1-3
  second-order: 0.0004243 and 0.0002815 and 0.0004866
[1]; time 273 sec, [B]0 = 250, replicates 1-3
  remaining [B]: 242.1 and 237.717 and 239.002
[1]; time 273 sec, replicates 1-3
  second-order: 0.0004614 and 0.0003194 and 0.0005152
[1]; time 303 sec, [B]0 = 250, replicates 1-3
  remaining [B]: 241.397 and 237.004 and 238.492
[1]; time 303 sec, replicates 1-3
  second-order: 0.0004847 and 0.0003496 and 0.000548
[1]; time 333 sec, [B]0 = 250, replicates 1-3
  remaining [B]: 240.774 and 236.377 and 237.897
[1]; time 333 sec, replicates 1-3
  second-order: 0.000512 and 0.0003766 and 0.0005771
[1]; time 364 sec, [B]0 = 250, replicates 1-3
  remaining [B]: 239.963 and 235.665 and 237.16
[1]; time 364 sec, replicates 1-3
  second-order: 0.0005463 and 0.0004122 and 0.0006106
[1]; time 394 sec, [B]0 = 250, replicates 1-3
  remaining [B]: 239.367 and 234.981 and 236.423
[1]; time 394 sec, replicates 1-3
  second-order: 0.0005809 and 0.0004386 and 0.0006431
[1]; time 424 sec, [B]0 = 250, replicates 1-3
  remaining [B]: 238.745 and 234.154 and 235.799
[1]; time 424 sec, replicates 1-3
  second-order: 0.0006105 and 0.0004664 and 0.0006829
[1]; time 454 sec, [B]0 = 250, replicates 1-3
  remaining [B]: 238.204 and 233.641 and 235.374
[1]; time 454 sec, replicates 1-3
  second-order: 0.0006308 and 0.0004908 and 0.0007078
[1]; time 485 sec, [B]0 = 250, replicates 1-3
  remaining [B]: 237.419 and 232.929 and 234.552
[1]; time 485 sec, replicates 1-3
  second-order: 0.0006705 and 0.0005265 and 0.0007427
[1]; time 515 sec, [B]0 = 250, replicates 1-3
  remaining [B]: 236.662 and 232.416 and 234.155
[1]; time 515 sec, replicates 1-3
  second-order: 0.0006899 and 0.0005614 and 0.0007681
[1]; time 545 sec, [B]0 = 250, replicates 1-3
  remaining [B]: 236.148 and 231.703 and 233.702
[1]; time 545 sec, replicates 1-3
  second-order: 0.0007121 and 0.0005853 and 0.0008038
[2]; Replicate 1, 723 sec, [B]0 = 250
  remaining [B]: 246.309
[2]; Replicate 1, 903 sec, [B]0 = 250
  remaining [B]: 246.195
[2]; Replicate 1, 1084 sec, [B]0 = 250
  remaining [B]: 246.107
[2]; Replicate 1, 1265 sec, [B]0 = 250
  remaining [B]: 246.422
[2]; Replicate 1, 1445 sec, [B]0 = 250
  remaining [B]: 246.548
[2]; Replicate 1, 1626 sec, [B]0 = 250
  remaining [B]: 246.346
[2]; Replicate 1, 1806 sec, [B]0 = 250
  remaining [B]: 245.931
[2]; Replicate 1, 1988 sec, [B]0 = 250
  remaining [B]: 245.767
[2]; Replicate 1, 2168 sec, [B]0 = 250
  remaining [B]: 245.616
[2]; Replicate 1, 2349 sec, [B]0 = 250
  remaining [B]: 245.553
[2]; Replicate 1, 2530 sec, [B]0 = 250
  remaining [B]: 245.464
[2]; Replicate 1, 2710 sec, [B]0 = 250
  remaining [B]: 245.427
[2]; Replicate 2, 542 sec, [B]0=250
  remaining [B]: 245.747
[2]; Replicate 2, 723 sec, [B]0=250
  remaining [B]: 245.533
[2]; Replicate 2, 903 sec, [B]0=250
  remaining [B]: 245.445
[2]; Replicate 2, 1084 sec, [B]0=250
  remaining [B]: 245.382
[2]; Replicate 2, 1265 sec, [B]0=250
  remaining [B]: 245.218
[2]; Replicate 2, 1445 sec, [B]0=250
  remaining [B]: 245.168
[2]; Replicate 2, 1626 sec, [B]0=250
  remaining [B]: 245.067
[2]; Replicate 2, 1806 sec, [B]0=250
  remaining [B]: 244.991
[2]; Replicate 2, 1988 sec, [B]0=250
  remaining [B]: 244.928
[2]; Replicate 2, 2168 sec, [B]0=250
  remaining [B]: 244.827
[2]; Replicate 2, 2349 sec, [B]0=250
  remaining [B]: 244.739
[2]; Replicate 2, 2530 sec, [B]0=250
  remaining [B]: 244.676
[2]; Replicate 2, 2710 sec, [B]0=250
  remaining [B]: 244.563
[2]; Replicate 3, 723 sec, [B]0=250
  remaining [B]: 245.666
[2]; Replicate 3, 903 sec, [B]0=250
  remaining [B]: 245.565
[2]; Replicate 3, 1084 sec, [B]0=250
  remaining [B]: 245.427
[2]; Replicate 3, 1265 sec, [B]0=250
  remaining [B]: 245.389
[2]; Replicate 3, 1445 sec, [B]0=250
  remaining [B]: 245.313
[2]; Replicate 3, 1626 sec, [B]0=250
  remaining [B]: 245.149
[2]; Replicate 3, 1806 sec, [B]0=250
  remaining [B]: 245.137
[2]; Replicate 3, 1988 sec, [B]0=250
  remaining [B]: 245.036
[2]; Replicate 3, 2168 sec, [B]0=250
  remaining [B]: 244.986
[2]; Replicate 3, 2349 sec, [B]0=250
  remaining [B]: 244.872
[2]; Replicate 3, 2530 sec, [B]0=250
  remaining [B]: 244.809
[2]; Replicate 3, 2710 sec, [B]0=250
  remaining [B]: 244.62
[2]; [3]
  second-order: 0.0002299 and 0.0002236 and 0.0001928
  remaining [B]: 244.62 and 245.338 and 244.475
[2]; [4]
  second-order: 0.0002338 and 0.0002269 and 0.0001976
  remaining [B]: 244.544 and 245.225 and 244.386
[2]; [5]
  second-order: 0.0002365 and 0.0002296 and 0.0001987
  remaining [B]: 244.481 and 245.2 and 244.323
[2]; [6]
  second-order: 0.0002403 and 0.0002356 and 0.0002052
  remaining [B]: 244.343 and 245.049 and 244.235
[2]; [7]
  second-order: 0.0002452 and 0.0002384 and 0.0002063
  remaining [B]: 244.28
[2]; Time 3794 sec, [B]0 = 250, Replicates 1-3
  second-order: 0.0002474 and 0.0002417 and 0.0002117
[2]; Time 3974 sec, [B]0 = 250, Replicates 1-3
  second-order: 0.0002513 and 0.0002455 and 0.0002139
[2]; Time 4155 sec, [B]0 = 250, Replicates 1-3
  second-order: 0.0002546 and 0.0002504 and 0.0002193
[2]; Time 4336 sec, [B]0 = 250, Replicates 1-3
  second-order: 0.000259 and 0.0002537 and 0.000222
[2]; Time 4516 sec, [B]0 = 250, Replicates 1-3
  second-order: 0.0002623 and 0.0002543 and 0.0002291
[2]; Time 4697 sec, [B]0 = 250, Replicates 1-3
  second-order: 0.0002656 and 0.0002598 and 0.0002275
[2]; Time 4878 sec, [B]0 = 250, Replicates 1-3
  second-order: 0.0002689 and 0.0002614 and 0.0002307
[2]; Time 5058 sec, [B]0 = 250, Replicates 1-3
  second-order: 0.0002728 and 0.000267 and 0.0002367
[2]; Time 5239 sec, [B]0 = 250, Replicates 1-3
  second-order: 0.0002767 and 0.0002692 and 0.0002406
[2]; Time 5419 sec, [B]0 = 250, Replicates 1-3
  second-order: 0.0002789 and 0.0002725 and 0.0002433
[2]; Time 5600 sec, [B]0 = 250, Replicates 1-3
  second-order: 0.0002833 and 0.0002764 and 0.0002471
[2]; Time 5781 sec, [B]0 = 250, Replicates 1-3
  second-order: 0.0002878 and 0.0002803 and 0.0002499
[2]; Time 5961 sec, [B]0 = 250, Replicates 1-3
  second-order: 0.0002906 and 0.000283 and 0.0002554
